Assay results published in ChEMBL document CHEMBL4000243, “Anti-HSV-1, antioxidant and antifouling phenolic compounds from the deep-sea-derived fungus Aspergillus versicolor SCSIO 41502” (Bioorg Med Chem Lett, 2017).
Converted amounts (≈) assume the structure as drawn. The source made the active and inactive calls. No cut-off for these calls is given here.

Experiments:
Bugula neritina [1] = experiment: Antifouling activity against Bugula neritina assessed as inhibition of larval settlement after 1 hr by dissecting microscopy; type: functional
[2] = Antioxidant activity assessed as DPPH radical scavenging activity at 100 ug/ml after 30 mins; type: functional
Bugula neritina [3] = experiment: Selectivity index, ratio of LC50 for Bugula neritina larvae to EC50 for antifouling activity against Bugula neritina larvae
Bugula neritina [4] = experiment: Antifouling activity against Bugula neritina larvae assessed as inhibition of larval settlement at 25 ug/ml after 1 hr by dissecting microscopy relative to control; type: functional
[5] = Antioxidant activity assessed as DPPH radical scavenging activity after 30 mins; type: functional
Human alphaherpesvirus 1 = experiment: Antiviral activity against HSV-1 infected in African green monkey Vero cells by plaque reduction assay; type: functional; conditions: for EC50: Human alphaherpesvirus 1, Vero
[6] = Antioxidant activity assessed as ABTS radical cation scavenging activity by measuring trolox equivalents by ABTS radical cation decolorization assay; type: functional
[7] = Cytotoxicity against African green monkey Vero cells assessed as reduction in cell viability by MTT assay; type: cell-based; conditions: chlorocebus sabaeus

Structure (SMILES)	Activity [2]	inhibition at 25 µg/mL (Bugula neritina [4])	further results
Cc1c(O)cc(CC(=O)C[C@H](C)O)c(C=O)c1O	< 50%	72.4%	EC50 (Bugula neritina [1]): 3.4 µg/mL (≈ 13.5 µM); Selectivity Index (Bugula neritina [3]): >100
Cc1cc(O)c(Oc2cc(C)cc(O)c2Oc2cc(C)cc(O)c2O)c(O)c1	81.3 to 92.8%	70.6%	EC50 (Bugula neritina [1]): 5.48 µg/mL (≈ 14.3 µM); Selectivity Index (Bugula neritina [3]): >100; IC50 [5]: 25.2 µM; Activity (Human alphaherpesvirus 1): inactive
Cc1cc(O)cc(O)c1C(=O)O [ORSELLINIC ACID]	< 50%	10 to 38%	–
Cc1cc(O)cc(Oc2cc(C)cc(O)c2O)c1 [CORDYOL C]	81.3 to 92.8%	10 to 38%	IC50 [5]: 52.3 µM
Cc1cc(O)cc(Oc2cc(C)cc(O)c2)c1 [DIORCINOL]	< 50%	10 to 38%	–
COC(=O)c1c(O)ccc2oc3cc(C)cc(O)c3c(=O)c12	< 50%	10 to 38%	–
CCCCCC(c1c(C)cc(Oc2cc(C)cc(O)c2)cc1O)c1c(O)cc2c(c1O)C(=O)c1c(O)cc(O)cc1C2=O (stereo in doubt; (+)-7)	–	–	Activity [6]: 2.07 mmol/g
Cc1cc(O)c(O)c(Oc2cc(C)cc(O)c2Oc2cc(C)cc(O)c2O)c1	81.3 to 92.8%	80%	EC50 (Bugula neritina [1]): 2.61 µg/mL (≈ 6.79 µM); Selectivity Index (Bugula neritina [3]): >100; IC50 [5]: 21.2 µM; Activity (Human alphaherpesvirus 1): inactive
COC(=O)c1c(C)cc(Oc2cc(O)cc(C)c2C(=O)O)cc1O	< 50%	10 to 38%	–
CC(=O)CC[C@H](CO)c1c(O)cc2c(c1O)C(=O)c1c(O)cc(O)cc1C2=O	< 50%	10 to 38%	Activity (Human alphaherpesvirus 1): inactive
Cc1cc(O)cc(OC(=O)c2c(C)cc(O)cc2O)c1 [LECANORIN]	< 50%	10 to 38%	–
CCCCCC(c1c(O)cc(C)cc1Oc1cc(C)cc(O)c1)c1c(O)cc2c(c1O)C(=O)c1c(O)cc(O)cc1C2=O (racemic)	< 50%	–	Activity [6]: 2.18 mmol/g; Activity (Human alphaherpesvirus 1): inactive
Cc1cc(O)cc(O)c1O	81.3 to 92.8%	10 to 38%	IC50 [5]: 35.1 µM
Cc1c(O)cc2cc(C[C@H](C)O)oc(=O)c2c1O	< 50%	–	–
CC(=O)CCCC(c1c(C)cc(Oc2cc(C)cc(O)c2)cc1O)c1c(O)cc2c(c1O)C(=O)c1c(O)cc(O)cc1C2=O (racemic)	< 50%	–	Activity [6]: 2.03 mmol/g; CC50 [7]: 109 µM; EC50 (Human alphaherpesvirus 1): 4.68 µM
Nc1nc2c(ncn2COCCO)c(=O)[nH]1 [ACYCLOVIR]	–	–	CC50 [7]: > 1000 µM; EC50 (Human alphaherpesvirus 1): 3 µM
CC(=O)CC[C@H](COC(C)=O)c1c(O)cc2c(c1O)C(=O)c1c(O)cc(O)cc1C2=O	< 50%	10 to 38%	CC50 [7]: 65.1 µM; EC50 (Human alphaherpesvirus 1): 3.12 µM
CCCCCC(c1c(C)cc(O)cc1O)c1c(O)cc2c(c1O)C(=O)c1c(O)cc(Oc3cc(C)cc(O)c3)cc1C2=O (racemic) [listing 1 of 2 here]	–	10 to 38%	–

Structure (SMILES)	Activity [2]	inhibition at 25 µg/mL (Bugula neritina [4])	further results
CCCCCC(c1c(C)cc(O)cc1O)c1c(O)cc2c(c1O)C(=O)c1c(O)cc(Oc3cc(C)cc(O)c3)cc1C2=O (stereo in doubt; (-)-6)	–	–	Activity [6]: 1.65 mmol/g
COC(C)CC(=O)Cc1cc(O)c(C)c(O)c1C=O (racemic)	< 50%	–	–
Cc1cc(O)cc(O)c1 [ORCINOL]	< 50%	10 to 38%	–
Cc1cc(O)cc(Oc2cc(C)c(C(=O)OCC(O)CO)c(O)c2)c1 (racemic)	< 50%	91.2%	EC50 (Bugula neritina [1]): 1.28 µg/mL (≈ 3.67 µM); Selectivity Index (Bugula neritina [3]): >100
Cc1cc(O)c(Oc2cc(C)cc(O)c2O)c(O)c1	81.3 to 92.8%	10 to 38%	IC50 [5]: 31.2 µM
Cc1cc(OC(=O)c2c(C)cc(O)cc2O)cc(O)c1C(=O)O [LECANORIC ACID]	< 50%	10 to 38%	–
CCCCCC(c1c(C)cc(O)cc1O)c1c(O)cc2c(c1O)C(=O)c1c(O)cc(Oc3cc(C)cc(O)c3)cc1C2=O (racemic) [listing 2 of 2 here]	< 50%	–	Activity [6]: 2.27 mmol/g; Activity (Human alphaherpesvirus 1): inactive
CCCCCC(c1c(C)cc(Oc2cc(C)cc(O)c2)cc1O)c1c(O)cc2c(c1O)C(=O)c1c(O)cc(O)cc1C2=O (stereo in doubt; (-)-7)	–	–	Activity [6]: 1.53 to 2 mmol/g
CCCCC[C@H](OC)c1c(O)cc2c(c1O)C(=O)c1c(O)cc(O)cc1C2=O	< 50%	10 to 38%	–
O=C1c2cc(O)cc(O)c2C(=O)c2c1cc(O)c([C@@H](CO)CCO)c2O	< 50%	10 to 38%	–
C[C@H](O)CC[C@H](CO)c1c(O)cc2c(c1O)C(=O)c1c(O)cc(O)cc1C2=O	< 50%	–	CC50 [7]: 50.7 µM; EC50 (Human alphaherpesvirus 1): 6.25 µM
Cc1cc(O)c(Oc2cc(C)cc(Oc3cc(C)cc(O)c3O)c2O)c(O)c1	81.3 to 92.8%	85.3%	EC50 (Bugula neritina [1]): 1.59 µg/mL (≈ 4.14 µM); Selectivity Index (Bugula neritina [3]): >100; IC50 [5]: 18.9 µM; Activity (Human alphaherpesvirus 1): inactive
COC(=O)c1c(C)cc(O)cc1O [METHYL ORSELLINATE]	< 50%	10 to 38%	–
O=C1O[C@H]([C@@H](O)CO)C(O)=C1O [ASCORBIC ACID]	–	–	IC50 [5]: 45.2 µM
CCCCCC(c1c(C)cc(Oc2cc(C)cc(O)c2)cc1O)c1c(O)cc2c(c1O)C(=O)c1c(O)cc(O)cc1C2=O (racemic) [listing 1 of 2 here]	–	10 to 38%	–
C[C@]12CCC[C@@H](O1)c1c(cc3c(c1O)C(=O)c1c(O)cc(O)cc1C3=O)O2	< 50%	10 to 38%	–
CCCCCC(c1c(C)cc(Oc2cc(C)cc(O)c2)cc1O)c1c(O)cc2c(c1O)C(=O)c1c(O)cc(O)cc1C2=O (racemic) [listing 2 of 2 here]	< 50%	–	Activity [6]: 2.11 mmol/g; Activity (Human alphaherpesvirus 1): inactive
